The text below walks through data of patent publication US12258316B2, “Biphenyl compounds useful as muscarinic receptor antagonists” (THERAVANCE BIOPHARMA R&D IP, LLC, priority 2004, dated 2025).

A value given as a limit tells only on which side of the number the result lay.

The target of assay [1] is T1, hM3 receptor (Homo sapiens, UniProt P20309).
T1 construct: expressed in transfected cells; host or cells: CHO cells
The assay is described as follows: Blockade of agonist-mediated calcium release via FLIPR assay. It is filed as cell-based. To be noted: CHO cells stably expressing the hM3 receptor, oxotremorine at EC90. An excerpt: C. Blockade of Agonist-Mediated Calcium Release via FLIPR Assays
Muscarinic receptor subtypes (M1, M3 and M5 receptors), which couple to Gq proteins, activate the phospholipase C (PLC) pathway upon agonist binding to the receptor. As a result, activated PLC hydrolyzes phosphatyl inositol diphosphate (PIP2) to diacylglycerol (DAG) and phosphatidyl-1,4,5-triphosphate (IP3), which in turn generates calcium release from intracellular stores, i.e., endoplasmic and sarcoplasmic reticulum. […] This fluorescence event is measured in real time by the FLIPR, which detects the change in fluorescence from a monolayer of cells cloned with human M1 and M3, and chimpanzee M5 receptors. Antagonist potency can be determined by the ability of antagonists to inhibit agonist-mediated increases in intracellular calcium. […]
To determine antagonist potency, the dose-dependent stimulation of intracellular Ca^2+ release for oxotremorine is first determined so that antagonist potency can later be measured against oxotremorine stimulation at an EC90 concentration. […]
The parameters used for the FLIPR are: exposure length of 0.4 seconds, laser strength of 0.5 watts, excitation wavelength of 488 nm, and emission wavelength of 550 nm. Baseline is determined by measuring the change in fluorescence for 10 seconds prior to addition of agonist. […]

The subject of assay [2] is ACh-induced bronchoconstriction. The assay is described as follows: Duration of bronchoprotection in guinea pig model of acetylcholine-induced bronchoconstriction. The format is in vivo. To be noted: inhalation, 1.5 hours post-dose. The method, then: Determination of Duration of Bronchoprotection in Guinea Pig Model of Acetylcholine-Induced Bronchoconstriction
Groups of six male guinea pigs (Duncan-Hartley (HsdPoc:DH) Harlan, Madison, WI) weighing between 250 and 350 g were individually identified by cage cards. Throughout the study animals were allowed access to food and water ad libitum.
Test compounds were administered via inhalation over 10 minutes in a whole-body exposure dosing chamber (R&S Molds, San Carlos, CA). The dosing chambers were arranged so that an aerosol was simultaneously delivered to 6 individual chambers from a central manifold. Guinea pigs were exposed to an aerosol of a test compound or vehicle (WFI). […] This was measured gravimetrically by comparing pre- and post-nebulization weights of the filled nebulizer.
The bronchoprotective effects of test compounds administered via inhalation were evaluated using whole body plethysmography at 1.5, 24, 48 and 72 hours post-dose.
Forty-five minutes prior to the start of the pulmonary evaluation, each guinea pig was anesthetized with an intramuscular injection of ketamine (43.75 mg/kg), xylazine (3.50 mg/kg) and acepromazine (1.05 mg/kg). […] The depth of anesthesia was monitored and adjusted if the animal responded to pinching of its paw or if the respiration rate was greater than 100 breaths/minute. […]

T1 sequence (P20309 whole entry): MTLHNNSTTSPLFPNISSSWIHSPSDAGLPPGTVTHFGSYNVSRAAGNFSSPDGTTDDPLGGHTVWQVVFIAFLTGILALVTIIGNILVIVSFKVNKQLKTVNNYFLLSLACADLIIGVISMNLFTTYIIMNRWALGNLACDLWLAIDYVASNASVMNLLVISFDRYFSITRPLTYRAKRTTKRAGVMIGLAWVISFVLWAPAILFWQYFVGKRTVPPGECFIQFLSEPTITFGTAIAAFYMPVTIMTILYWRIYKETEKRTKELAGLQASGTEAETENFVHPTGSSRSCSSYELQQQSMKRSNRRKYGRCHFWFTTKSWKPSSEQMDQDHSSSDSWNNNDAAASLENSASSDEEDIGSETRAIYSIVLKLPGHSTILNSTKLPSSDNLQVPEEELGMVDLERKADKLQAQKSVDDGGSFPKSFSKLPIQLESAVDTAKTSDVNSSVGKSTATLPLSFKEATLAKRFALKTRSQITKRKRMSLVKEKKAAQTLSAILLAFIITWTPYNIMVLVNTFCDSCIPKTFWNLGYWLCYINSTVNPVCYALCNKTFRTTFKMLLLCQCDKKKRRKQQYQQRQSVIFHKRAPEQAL

For orientation: Ki means the equilibrium dissociation constant of an inhibitor or competing ligand from its target. For `CN(CCN1CCC(OC(=O)Nc2ccccc2-c2ccccc2)CC1)C(=O)c1ccc(CN2CCC(C(N)=O)CC2)cc1` [Example 1, Biphenyl-2-ylcarbamic Acid 1-(2-{[4-(4-Carbamoylpiperidin-1-ylmethyl)benzoyl]methylamino}ethyl)piperidin-4-yl Ester], in assay [1], the Ki was below 5 nM. Moreover, in assay [2], the “PD2(50) for ACh-induced bronchoconstriction” value was “less than 200 μg/mL”.
